Measurements: ChEMBL document CHEMBL1157539, “Thousands of chemical starting points for antimalarial lead identification” (Nature, 2010)

Test system: Plasmodium falciparum
Assay: GSK_TCMDC: Inhibition of Plasmodium falciparum 3D7 in whole erythrocytes, using parasite LDH activity as an index of growth.
Type: functional, organism-based
Settings: Plasmodium falciparum, 3D7

Row | Structure (SMILES) | XC50
1 | COc1ccc(NC(=O)C2c3ccccc3C(=O)N(CC(C)C)C2c2cccs2)cc1OC (stereo not drawn) | 0.203 µM
2 | O=C(/C=C/c1ccc(Cl)c(Cl)c1)N1CCC(CN2CCC(c3c[nH]c4ccncc34)CC2)CC1 | 0.733 µM
3 | COc1cc(CCNC(=O)Cc2ccc3ccccc3c2)ccc1OCc1ccccc1 | 1.02 µM
4 | Cc1ccc(-c2cc(C(=O)Nc3ccc(S(=O)(=O)N4CCCCC4)cc3)[nH]n2)c(O)c1 | 1.77 µM
5 | Fc1cc(Cl)ccc1Nc1ccnc2cc(-c3scnc3CNCCN3CCOCC3)ccc12 | 0.848 µM
6 | COc1ccc(CC(=O)NC(CCCN2CCC(c3ccccc3)CC2)c2ccc(Cl)c(Cl)c2)cc1OC (stereo not drawn) | 1.05 µM
7 | COc1ccc(C2SCC(=O)N2CCc2ccc(OC)c(OC)c2)cc1 (stereo not drawn) | 0.306 µM
8 | CCOC(=O)NC1=NC(C)(C)N(OCCCOc2ccc(C)cc2C)C(NC(=O)OCC)=N1 | 0.126 µM
9 | O=C(NC1CCC(CN2CCC(c3c[nH]c4ccccc34)CC2)CC1)c1csc(-c2cccc(Cl)c2Cl)n1 (stereo not drawn) | 1.73 µM
10 | CN(C)CCNC(=O)c1ccc2c(c1)ncn2-c1cc(OCc2ccccc2C(F)(F)F)c(C(N)=O)s1.CN(C)CCNC(=O)c1ccc2ncn(-c3cc(OCc4ccccc4C(F)(F)F)c(C(N)=O)s3)c2c1 | 0.809 µM
11 | COc1ccc(C=NN=c2cc(C)[nH]c3ccccc23)c2ccccc12 | 0.752 µM
12 | Cc1cccc2nc(-c3ccc(-c4ccc(C(=O)NCCN5CCCC5)cc4)cc3)[nH]c12 | 0.519 µM
13 | Cn1nc(-c2cccc(CNC3CCc4ccccc43)c2)c2cnc(NCCCN3CCCC3)nc21 (stereo not drawn) | 0.877 µM
14 | COc1ccccc1Nc1nc(C)cc(NCc2ccc(-c3c(C)noc3C)cc2)n1 | 0.872 µM
15 | C[C@@H](NC(=O)NC(CCN1CCC2(CC1)CN(S(C)(=O)=O)c1ccccc12)c1ccc(Cl)c(Cl)c1)c1ccccc1 (stereo partly drawn) | 0.903 µM
16 | COc1ccc2nccc(NC(=O)N3CCC(NCCOc4cc(F)cc(F)c4)CC3)c2n1 | 0.77 µM
17 | CCC(C)NS(=O)(=O)c1ccc2nc(Nc3ccc(C)c(Cl)c3)n(C(C)C(C)C)c2c1 (stereo not drawn) | 0.375 µM
18 | COc1ccc(CNC2Cc3ccccc3C2)cc1-c1ccc(S(=O)(=O)NCCN2CCCC2)c(F)c1 | 0.719 µM
19 | O=C(/C=C/c1ccc(Cl)c(Cl)c1)N1CCC(CCCN2CCC(c3c[nH]c4ccc(O)cc34)CC2)CC1 | 0.694 µM

Row | Structure (SMILES) | XC50
20 | CC1CCCCN1CCCNc1ncc2c(-c3ccc(NC(=O)Nc4cc(C(F)(F)F)ccc4F)c(F)c3)nn(C)c2n1 (stereo not drawn) | 0.263 µM
21 | COCCNC(=O)C(CNC(=O)c1ccc2c(c1)OCO2)NC(=O)c1ccc(-c2ccccc2)cc1 (stereo not drawn) | 0.974 µM
22 | COc1ccccc1N1CCN(Cc2c(O)ccc3cc(Br)ccc23)CC1 | 1.15 µM
23 | CC(C)Cn1c(Sc2ccc(C#N)c([N+](=O)[O-])c2)nnc1-c1ccccc1Cl | 0.901 µM
24 | CCSc1nc2sc3c(c2c(=O)n1-c1ccccc1)CCN(C)C3 | 0.457 µM
25 | Cc1cc(N(CCN2CCCCC2)CCN2CCCCC2)nc(Nc2ccc(Cl)cc2)n1 | 0.269 µM
26 | CN(C)CC1CCCN1Cc1ccccc1-c1cnn(C)c(=O)c1Oc1ccc(F)cc1 (stereo not drawn) | 1.22 µM
27 | Cc1cccc2nc(-c3ccc(-c4ccc(CN5CCOCC5)cc4)cc3)[nH]c12 | 0.818 µM
28 | CNCCCCCCOc1ccc(CC(C)NCC(O)c2cccc(C(F)(F)F)c2)cc1 (stereo not drawn) | 0.884 µM
29 | CCC(C(=O)Nc1cc(=O)[nH]c2nc(-c3ccco3)nn12)c1ccccc1 (stereo not drawn) | 0.844 µM
30 | CS(=O)(=O)c1ccc2[nH]c(-c3cc(-c4ccc(OCCN5CCOCC5)cc4)cnc3N)nc2c1 | 1.06 µM
31 | Cc1cc(NCCC(=O)Nc2ccccc2)nc(NCCOc2ccccc2)n1 | 1.14 µM
32 | Cc1cccc(-c2cccc3c(NC(=O)N4CCc5cc6nccc(N7CCN8CCC[C@H]8C7)c6cc54)cccc23)n1 | 0.916 µM
33 | COc1ccc(OC)c(CNCC(O)c2cc(C(F)(F)F)cc(C(F)(F)F)c2)c1 (stereo not drawn) | 0.443 µM
34 | C=CCc1cc(Cc2cnc(N)nc2N)cc(CCC)c1OC | 1.36 µM
35 | c1ccc(-c2ccc(CNCCCNc3nc4ccccc4[nH]3)cc2)cc1 | 0.783 µM
36 | CN(C)Cc1cccc(-c2ccc3ccnc(N)c3c2)c1 | 0.122 µM
37 | COc1ccc2ncc(F)c(CCN3CC(O)C(CNCc4ccc5ccccc5c4)C3)c2n1 (stereo not drawn) | 0.501 µM
38 | CCOc1cccc(C(=O)Nc2nonc2-c2ccc(OC)c(OC)c2)c1 | 1.02 µM
